In US20090191193A1, “Aryl Vinyl Sulfides, Sulfones, Sulfoxides and Sulfonamides, Derivatives Thereof and Therapeutic Uses Thereof” (TEMPLE UNIVERSITY-OF THE COMMONWEALTH SYSTEM OF HIGHER …, priority 2006, published 2009):

Assays:
DU145 (prostate cancer) = experiment: Effect on tumor cell lines, viable cell count by trypan blue exclusion (Latham et al.): DU145; assay type: cell-based; conditions: DU145 prostate cancer cells, viable cell count 96 hours after treatment
BT20 (breast carcinoma) = experiment: Effect on tumor cell lines, viable cell count by trypan blue exclusion (Latham et al.): BT20; assay type: cell-based; conditions: Homo sapiens, BT-20, BT20 breast carcinoma cells, viable cell count 96 hours after treatment
Method: (§1) The effect of the compounds of the invention on tumor cells was determined by the assay described by Latham et al., Oncogene 12:827-837 (1996). Tumor cells DU145 (prostate cancer), K562 (chronic myelogenous leukaemia), BT20 (breast carcinoma), H157 (non small cell lung carcinoma), or DLD1 (colon carcinoma) were plated in 6-well dishes at a cell density of 1.0×10^5 cells per 35-mm^2 well. The plated cells were treated 24 hours later with a compound of the invention dissolved in DMSO at multiple concentrations ranging from 100 nM to 10 μM. The total number of viable cells was determined 96 hours later by trypsinizing the wells and counting the number of viable cells, as determined by trypan blue exclusion, using a hemacytometer. Normal HFL cells were treated with the same compounds under the same conditions of concentration and time.

[1] = test system: H157 (non small cell lung carcinoma); experiment: Effect on tumor cell lines, viable cell count by trypan blue exclusion (Latham et al.): H157; assay type: cell-based; conditions: Homo sapiens, NCI-H157, H157 non small cell lung carcinoma cells, viable cell count 96 hours after treatment
Method: as §1

DLD1 (colon carcinoma) = experiment: Effect on tumor cell lines, viable cell count by trypan blue exclusion (Latham et al.): DLD1; assay type: cell-based; conditions: Homo sapiens, DLD-1, DLD1 colon carcinoma cells, viable cell count 96 hours after treatment
Method: as §1

[2] = test system: K562 (chronic myelogenous leukaemia); experiment: Effect on tumor cell lines, viable cell count by trypan blue exclusion (Latham et al.): K562; assay type: cell-based; conditions: K562 chronic myelogenous leukaemia cells, viable cell count 96 hours after treatment

| Structure (SMILES) | IC50 (DU145 (prostate cancer); Homo sapiens, DU-145, 96 h) [µM] | IC50 (BT20 (breast carcinoma)) [µM] | IC50 [1] [µM] | IC50 (DLD1 (colon carcinoma)) [µM] | melting point [°C] | IC50 ([2]; Homo sapiens, K562, 96 h) [µM] | IC50 (DU145 (prostate cancer)) [µM] | IC50 [2] [µM] |
| --- | --- | --- | --- | --- | --- | --- | --- | --- |
| NC(=O)/C(=C\c1ccc(Cl)cc1)S(=O)(=O)Cc1ccc(Cl)cc1Cl [Example 150] | > 20 | > 20 | > 20 | > 20 | 201 to 205 |  |  |  |
| COc1ccc(CS(=O)(=O)/C(=C/c2ccc(F)cc2)C(N)=O)cc1 [Example 172] | > 20 | > 20 | > 20 | > 20 | 158 to 161 |  |  |  |
| COc1ccc(CS(=O)(=O)/C(=C/c2c(OC)cccc2OC)C(N)=O)cc1 [Example 173] | > 20 | > 20 | > 20 | > 20 | 166 to 168 |  |  |  |
| COc1cc(OC)c(/C=C(\C(N)=O)S(=O)(=O)Cc2ccc(Cl)cc2)c(OC)c1 [Example 174] | > 20 | > 20 | > 20 | > 20 | 176 to 178 |  |  |  |
| COc1cccc(OC)c1/C=C(\C(N)=O)S(=O)(=O)Cc1ccc(Cl)cc1 [Example 175] | 10 to 20 | 10 to 20 | 10 to 20 | 10 to 20 | 150 to 154 |  |  |  |
| NC(=O)/C(=C\c1ccc([N+](=O)[O-])cc1)S(=O)(=O)Cc1ccc(Cl)cc1 [Example 176] | > 20 | > 20 | > 20 | > 20 | 190 to 192 |  |  |  |
| NC(=O)/C(=C\c1ccc(F)cc1)S(=O)(=O)c1ccccc1 [Example 177] | 1 to 10 | 1 to 10 | 1 to 10 | 1 to 10 | 151 to 154 |  |  |  |
| COc1cccc(OC)c1/C=C(\C(N)=O)S(=O)(=O)c1ccccc1 [Example 179] | 10 to 20 | 10 to 20 | 10 to 20 | 10 to 20 | 168 to 172 |  |  |  |
| COc1ccc(S(=O)(=O)/C(=C/c2c(OC)cccc2OC)C(N)=O)cc1 [Example 183] | > 20 | > 20 | > 20 | > 20 | 160 to 162 |  |  |  |
| COc1ccc(S(=O)(=O)/C(=C/c2ccc([N+](=O)[O-])cc2)C(N)=O)cc1 [Example 184] | > 20 | > 20 | > 20 | > 20 | 172 to 174 |  |  |  |
| COc1ccccc1/C=C(\C#N)S(=O)(=O)Nc1ccc(C)cc1C [Example 266, (E)-2-[(2,4-dimethylphenyl)sulfamoyl]-3-(2-methoxyphenyl)acrylonitrile] | > 100 |  |  |  | 136 to 139 | 50 to 100 |  |  |
| Cc1ccc(NS(=O)(=O)/C(C#N)=C/c2ccc(Cl)cc2)c(C)c1 [Example 267] | 50 to 100 |  |  |  | 158 to 161 | 50 to 100 |  |  |
| COc1cc(/C=C(\C#N)S(=O)(=O)Nc2ccc(C)cc2C)cc(OC)c1OC [Example 268] | > 100 |  |  |  | 178 to 180 | 50 to 100 |  |  |
| Cc1ccc(NS(=O)(=O)/C(C#N)=C/c2c[nH]c3ccc(Br)cc23)c(C)c1 [Example 269] | 1 to 10 |  |  |  | 231 to 235 | 1 to 10 |  |  |
| COc1ccc(/C=C(\C#N)S(=O)(=O)Nc2ccc(C)cc2C)cc1 [Example 270] | > 100 |  |  |  | 127 to 129 | > 100 |  |  |
| Cc1ccc(NS(=O)(=O)/C(C#N)=C/c2ccc(O)cc2)c(C)c1 [Example 271] | > 100 |  |  |  | 152 to 154 | > 100 |  |  |
| COc1ccc(/C=C(\C#N)S(=O)(=O)Nc2ccc(C)cc2C)c(OC)c1OC [Example 272] | > 100 |  |  |  | 124 to 125 | > 100 |  |  |
| CCOc1ccc(/C=C(\C#N)S(=O)(=O)Nc2ccc(C)cc2C)cc1OC [Example 273] | > 100 |  |  |  | 146 to 150 | > 100 |  |  |

| Structure (SMILES) | IC50 (DU145 (prostate cancer); Homo sapiens, DU-145, 96 h) [µM] | IC50 (BT20 (breast carcinoma)) [µM] | IC50 [1] [µM] | IC50 (DLD1 (colon carcinoma)) [µM] | melting point [°C] | IC50 ([2]; Homo sapiens, K562, 96 h) [µM] | IC50 (DU145 (prostate cancer)) [µM] | IC50 [2] [µM] |
| --- | --- | --- | --- | --- | --- | --- | --- | --- |
| Cc1ccc(NS(=O)(=O)/C(C#N)=C/c2ccc(Cl)c(Cl)c2)c(C)c1 [Example 274] | 50 to 100 |  |  |  | 141 to 143 | 50 to 100 |  |  |
| CCOc1cc(/C=C(\C#N)S(=O)(=O)Nc2ccc(C)cc2C)ccc1O [Example 275] | > 100 |  |  |  | 146 to 148 | 50 to 100 |  |  |
| COc1ccc(NS(=O)(=O)/C(C#N)=C/c2ccccc2OCc2ccccc2)cc1 [Example 277] | 10 to 25 |  |  |  | 111 to 112 | 10 to 25 |  |  |
| COc1ccc(NS(=O)(=O)/C(C#N)=C/c2c[nH]c3ccccc23)cc1 [Example 278] | 50 to 100 |  |  |  | 201 to 205 | 50 to 100 |  |  |
| COc1ccc(NS(=O)(=O)/C(C#N)=C/c2c(OC)cc(OC)cc2OC)cc1 [Example 279] |  |  |  |  | 151 to 154 |  | 25 to 50 | 10 to 25 |
| COc1ccc(NS(=O)(=O)/C(C#N)=C/c2ccc(N(C)C)cc2)cc1 [Example 280] | > 100 |  |  |  | 166 to 169 | 50 to 100 |  |  |
| COc1ccc(NS(=O)(=O)/C(C#N)=C/c2sccc2C)cc1 [Example 281] | > 100 |  |  |  | 154 to 156 | > 100 |  |  |
| COc1ccc(NS(=O)(=O)/C(C#N)=C/c2cc(C)ccc2C)cc1 [Example 282] | 50 to 100 |  |  |  | 125 to 127 | 50 to 100 |  |  |
| COc1ccc(NS(=O)(=O)/C(C#N)=C/c2ccc(C)s2)cc1 [Example 283] | > 100 |  |  |  | 118 to 121 | > 100 |  |  |
| COc1ccc(NS(=O)(=O)/C(C#N)=C/c2cc(OC)c(OC)cc2OC)cc1 [Example 284] | > 100 |  |  |  | 171 to 173 | 25 to 50 |  |  |
| COc1ccc(NS(=O)(=O)/C(C#N)=C/c2ccc(OC)c(OC)c2OC)cc1 [Example 285] | > 100 |  |  |  | 140 to 142 | 50 to 100 |  |  |
| CCOc1ccc(/C=C(\C#N)S(=O)(=O)Nc2ccc(OC)cc2)cc1OC [Example 287] | > 100 |  |  |  | 111 to 113 | > 100 |  |  |
| COc1ccc(NS(=O)(=O)/C(C#N)=C/c2ccc(Cl)c(Cl)c2)cc1 [Example 288] | 50 to 100 |  |  |  | 84 to 86 | 25 to 50 |  |  |
| COc1ccc(NS(=O)(=O)/C(C#N)=C/c2ccc(O)cc2)cc1 [Example 289] | > 100 |  |  |  | 181 to 182 | 50 to 100 |  |  |
| COc1ccc(NS(=O)(=O)/C(C#N)=C/c2ccc(Cl)cc2)cc1 [Example 290] | 50 to 100 |  |  |  | 95 to 96 | 25 to 50 |  |  |
| COc1ccc(NS(=O)(=O)/C(C#N)=C/c2ccc(Br)cc2)cc1 [Example 291] |  |  |  |  | 102 to 103 |  | 50 to 100 | 50 to 100 |
| COc1ccc(NS(=O)(=O)/C(C#N)=C/c2ccccc2O)cc1 [Example 292] | > 100 |  |  |  | 197 to 198 | 50 to 100 |  |  |
